Results reported in US6962808B2, “Method and apparatus for measurement of the effect of test compounds on signal transduction at the level of biological receptors” (The University of Louisville Research Foundation, priority 1998, dated 2005).

Target: T1, human estrogen receptor binding to ERE (Homo sapiens, UniProt P03372)
T1 construct: ubiquitin (fusion partner); made in house; host or cells: Saccharomyces cerevisiae strain AF103, YEpE10 plasmid, CUP1 promoter
Assay: Evanescent fiber optic sensor, ERE fiber, binding of Cy5-tagged hER to the estrogen response element
Type: biochemical
Procedure: This solution comprised said calibration standard of component 6a. […] This receptor preparation was used as the calibration solution. Immediately after preparation it was pipetted in 135 μl aliquots into microcentrifuge tubes, snap frozen and stored at −80° C. They were not thawed again until they were used with the fiber sensor.

T1 sequence (P03372 whole entry, the tested form may be a part): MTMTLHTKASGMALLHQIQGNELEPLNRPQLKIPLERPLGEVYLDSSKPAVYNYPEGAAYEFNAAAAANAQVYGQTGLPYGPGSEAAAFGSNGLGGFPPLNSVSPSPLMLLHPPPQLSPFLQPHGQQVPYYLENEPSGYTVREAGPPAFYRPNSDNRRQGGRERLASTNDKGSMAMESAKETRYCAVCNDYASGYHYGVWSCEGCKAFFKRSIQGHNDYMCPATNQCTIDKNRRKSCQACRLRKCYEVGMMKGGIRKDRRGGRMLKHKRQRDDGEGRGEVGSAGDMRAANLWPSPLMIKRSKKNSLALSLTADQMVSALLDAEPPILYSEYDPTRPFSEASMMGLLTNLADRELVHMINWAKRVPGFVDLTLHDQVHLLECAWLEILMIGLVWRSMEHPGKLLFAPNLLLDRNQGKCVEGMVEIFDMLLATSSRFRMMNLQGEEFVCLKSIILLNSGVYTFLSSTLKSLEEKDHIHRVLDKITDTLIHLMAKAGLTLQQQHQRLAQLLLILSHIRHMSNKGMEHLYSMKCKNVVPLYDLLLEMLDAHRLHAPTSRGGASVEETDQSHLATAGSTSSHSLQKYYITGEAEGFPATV

C[C@H]1CCCC(=O)CCC/C=C/c2cc(O)cc(O)c2C(=O)O1 [zearalenone]
Response of ERE fiber to hER and 10^−6 M compound (control = 3.51) (S/C value, control = 3.51): 5.01
effect on binding of hER to the ERE fiber (in words, 10^−6 M compound): increase binding to the ERE more than do the weak biological estrogens
